The source of these data is patent publication US8440212B2, “Compositions for treating water systems” (Arch Chemicals, Inc., priority 2009, dated 2013).

Read-outs that look alike come from different tables or passages of the source.

For test [1], the system named is wild mustard algae (Miami strain). As for the experimental part:
(§1) Efficacy of zinc ions (in the form of zinc sulfate) was evaluated using two strains of very difficult to control wild mustard algae, both isolated from a pool treated with BAQUACIL (Arch Chemicals, Norwalk, CT). All experiments were conducted in 125 ml Erlenmeyer flasks that contained 50 ml of Jaworski's medium. To increase the surface area in the flasks each flask also contained 50 6 mm glass beads. The tests flasks were illuminated using a combination incandescent and fluorescent plant grow lights with 16 hours of illumination and 8 hours of darkness. Temperature was maintained at 80° F+/−5° F. The flasks were grown without agitation or additional aeration. One ml of a pooled mid-log culture was used to used to inoculate the test flasks to an initial optical density of 95%T. This yields an initial concentration of approximately […] algae per ml. Efficacy was evaluated in the presence and absence of a sub-optimal concentration of a primary sanitizer (PHMB). Growth was measured optically at 450 nm using a 1 inch cell in a Spectronic 20. All experiments used five replicates. The results of the optical readings were arithmetically averaged. […] In FIGS. 1 and 2, PHMB concentrations were held at 4 PPM, and zinc ion concentration was varied from 0 to 3 PPM. Growth over time was measured and plotted.

For test [2], the system named is wild mustard algae (Schwab strain). As for the experimental part: as §1
Test [3] concerns Chlorella pyrenoidosa, Pleurochloris pyrenoidosa and Phormidium sp. The note with it: FIG. 4.
Description: This study was conducted in test pools without bathers. The water was initially balanced and proper water balance was maintained throughout the study. Each pool was inoculated weekly with mixed bacterial, fungal and algal cultures. The algae inoculations were prepared using the methodology below.
Algal cultures were maintained in 5 liter carboys at 22° C. under fluorescent light with a 12 hour on/off cycle. Air is continuously bubbled through the medium. Stock cultures of Chlorella pyrenoidosa and Pleurochloris pyrenoidosa are maintained in Kratz & Meyers medium and Phormidium sp., a filamentous blue-green alga, is maintained in BG-11.
150 milliliters of a combined inoculum containing equal amounts of each strain is added weekly per 10,000 gallons of water. Typically the cultures contain approximately 2×10^7 cells per milliliter; therefore approximately 2×10^9 cells are added per pool each week. However, if time allows, determine the actual number of algae in each sample by heamocytometry, using a Neubauer heamocytometer. Each pool was chemically treated using the procedure below.
A. Test Pool 7: Baquacil CDX +Didecyl dimethyl ammonium chloride (DDAC) • 1. […]
Observations were taken on a business daily basis and the pool was scored using the following 0-4 scale. • 0=no trace of algae • 1=trace amounts • 2=small patches • 3=large patches • 4=sides and bottom more than 25% covered by algae
[4] abbreviates: 2 or 3 ppm zinc ions, PHMB 4 PPM.

Take `O=S(=O)([O-])[O-].[Zn+2]` [zinc sulfate]: the “reduction of algal growth” value in test [1] (setting [4]) and in test [2] (setting [4]) was “approximately 50%” each time. Moreover, the algaestatic activity entry in test [1] (FIG. 2, PHMB held at 4 PPM, zinc ion 0 to 3 PPM, growth measured optically at 450 nm) was “moderate algaestatic activity”; in test [2] (FIG. 1, PHMB held at 4 PPM, zinc ion 0 to 3 PPM, growth measured optically at 450 nm), “moderate algaestatic activity”. Moreover, the “algaestatic performance (visual algae score 0-4)” value is “improved algaestatic performance” in test [3] (Test Pool 7: Baquacil CDX + DDAC, single 4.2 ppm dosage of zinc sulfate (1.5 PPM zinc) after 102 days); “improved algaestatic performance” in test [3] (Test Pool 8: Baquacil CDX control, 4.2 ppm dosages of zinc sulfate (1.5 PPM zinc) after 33, 40 and 61 days).
